From patent US9309238B2, “Imidazo [1,2-a]pyridine compounds, synthesis thereof, and methods of using same” (priority 2009, dated 2016)
≈ marks a conversion by molar mass, not a printed value. Like-named read-outs stand apart in the source and are kept apart here.

Tests used:
Test in all cases: microbe, parasite or virus in culture
[1] = tested on: rRMP (Rifampicin-resistant TB strain); format: cell-based, Mycobacterium tuberculosis
[2] = tested on: rINH (Isoniazid-resistant TB strain); format: cell-based, Mycobacterium tuberculosis
[3] = tested on: rKM (Kanamycin-resistant TB strain); format: cell-based, Mycobacterium tuberculosis
[4] = tested on: rSM (Streptomycin-resistant TB strain); format: cell-based, Mycobacterium tuberculosis
[5] = tested on: MDR-TB strain resistant to HRESP; format: cell-based; settings: Mycobacterium tuberculosis
[6] = tested on: MDR-TB strain resistant to HREZSP; format: cell-based; settings: Mycobacterium tuberculosis
[7] = tested on: MDR-TB strain resistant to HCPTh; format: cell-based; settings: Mycobacterium tuberculosis
[8] = tested on: MDR-TB strain resistant to HREKP; format: cell-based; settings: Mycobacterium tuberculosis
[9] = tested on: MDR-TB strain resistant to HRERb* (column 5); format: cell-based; settings: Mycobacterium tuberculosis
[10] = tested on: MDR-TB strain resistant to HREZSKPTh; format: cell-based; settings: Mycobacterium tuberculosis
[11] = tested on: MDR-TB strain resistant to HRERb* (column 7); format: cell-based; settings: Mycobacterium tuberculosis
[12] = tested on: MDR-TB strain resistant to HRERb* (column 8); format: cell-based; settings: Mycobacterium tuberculosis
[13] = tested on: MDR-TB strain resistant to HREZRbTh; format: cell-based; settings: Mycobacterium tuberculosis
[14] = tested on: extreme drug-resistant TB strain HRESPOCTh; format: cell-based; settings: Mycobacterium tuberculosis
[15] = tested on: extreme drug-resistant TB strain HREPKOTh; format: cell-based; settings: Mycobacterium tuberculosis
[16] = tested on: extreme drug-resistant TB strain HRESPO; format: cell-based; settings: Mycobacterium tuberculosis
[17] = single drug resistant strain rRMP
[18] = single drug resistant strain rINH
[19] = single drug resistant strain rKM

For Cc1ccn2c(C(=O)NCc3ccccc3)c(C)nc2c1 [ND-8454, N-benzyl-2,7-dimethylimidazo[1,2-a]pyridine-3-carboxamide], which MIC90 ([1]; Mycobacterium tuberculosis) is on record?
The MIC90 was 0.28 µM (≈ 0.0782 µg/mL).

And the MIC90 ([2]; Mycobacterium tuberculosis)?
Its MIC90 is 0.33 µM (≈ 0.0922 µg/mL).

What about the MIC90 ([3]; Mycobacterium tuberculosis) of the same compound?
Its MIC90 is 1.07 µM (≈ 0.299 µg/mL).

And the MIC90 ([4]; Mycobacterium tuberculosis)?
Its MIC90 is 1.02 µM (≈ 0.285 µg/mL).

What about the MIC90 [5] of the same compound?
The MIC90 was 0.625 µg/mL (≈ 2.24 µM).

And the MIC90 [6]?
Its MIC90 is 0.312 µg/mL (≈ 1.12 µM).

What about the MIC90 [7] of the same compound?
Its MIC90 is 0.313 µg/mL (≈ 1.12 µM).

What about the MIC90 [8] of the same compound?
The MIC90 was 0.078 µg/mL (≈ 0.279 µM).

What about the MIC90 [9] of the same compound?
Its MIC90 is 0.039 µg/mL (≈ 0.14 µM).

What about the MIC90 [10] of the same compound?
The MIC90 was 0.019 µg/mL (≈ 0.068 µM).

What about the MIC90 [11] of the same compound?
Its MIC90 is 0.039 µg/mL (≈ 0.14 µM).

What about the MIC90 [12] of the same compound?
Its MIC90 is 0.078 µg/mL (≈ 0.279 µM).

What about the MIC90 [13] of the same compound?
The MIC90 was 0.039 µg/mL (≈ 0.14 µM).

What about the MIC90 [14] of the same compound?
The MIC90 was 0.02 µg/mL (≈ 0.0716 µM).

And the MIC90 [15]?
The MIC90 was 0.02 µg/mL (≈ 0.0716 µM).

What about the MIC90 [16] of the same compound?
Its MIC90 is 0.039 µg/mL (≈ 0.14 µM).

Cc1ccn2c(C(=O)NCc3cccc(F)c3)c(C)nc2c1 [ND-9361] was tested. Which MIC90 [5] did it give?
Its MIC90 is 0.078 µg/mL (≈ 0.262 µM).

What about the MIC90 [6] of the same compound?
The MIC90 was 0.019 µg/mL (≈ 0.0639 µM).

What about the MIC90 [8] of the same compound?
Its MIC90 is 0.078 µg/mL (≈ 0.262 µM).

What about the MIC90 [9] of the same compound?
Its MIC90 is 0.039 µg/mL (≈ 0.131 µM).

What about the MIC90 [10] of the same compound?
The MIC90 was 0.019 µg/mL (≈ 0.0639 µM).

And the MIC90 [11]?
Its MIC90 is 0.01 µg/mL (≈ 0.0336 µM).

What about the MIC90 [12] of the same compound?
Its MIC90 is 0.078 µg/mL (≈ 0.262 µM).

What about the MIC90 [13] of the same compound?
The MIC90 was 0.019 µg/mL (≈ 0.0639 µM).

And the MIC90 [14]?
Its MIC90 is 0.02 µg/mL (≈ 0.0673 µM).

And the MIC90 [15]?
Its MIC90 is 0.01 µg/mL (≈ 0.0336 µM).

What about the MIC90 [16] of the same compound?
The MIC90 was 0.01 µg/mL (≈ 0.0336 µM).

For NNC(=O)c1ccncc1 [INH, Isoniazid, reference compound], which MIC90 ([1]; Mycobacterium tuberculosis) is on record?
Its MIC90 is 0.23 µM (≈ 0.0315 µg/mL).

And the MIC90 ([2]; Mycobacterium tuberculosis)?
Its MIC90 is over 8 µM.

Cc1ccc2nc(C)c(C(=O)NCc3ccc(S(C)(=O)=O)cc3)n2c1 [ND-9965] was tested. Which MIC90 [1, 17] did it give?
The MIC90 was 0.54 µM (≈ 0.193 µg/mL).

What about the MIC90 [2, 18] of the same compound?
The MIC90 was 0.57 µM (≈ 0.204 µg/mL).

What about the MIC90 [3, 19] of the same compound?
Its MIC90 is 1.98 µM (≈ 0.708 µg/mL).

What about the MIC90 [4] of the same compound?
Its MIC90 is 2.31 µM (≈ 0.826 µg/mL).

Which MIC90 ([1]; Mycobacterium tuberculosis) does the source give for CO[C@H]1/C=C/O[C@@]2(C)Oc3c(C)c(O)c4c(O)c(c(/C=N/N5CCN(C)CC5)c(O)c4c3C2=O)NC(=O)/C(C)=C\C=C\[C@H](C)[C@H](O)[C@@H](C)[C@@H](O)[C@@H](C)[C@H](OC(C)=O)[C@@H]1C [RMP, Rifampicin, reference compound] here?
The MIC90 was over 1 µM.

What about the MIC90 ([2]; Mycobacterium tuberculosis) of the same compound?
Its MIC90 is 0.01 µM (≈ 0.00823 µg/mL).

With COc1c(N2C[C@@H]3CCCN[C@@H]3C2)c(F)cc2c(=O)c(C(=O)O)cn(C3CC3)c12 [Moxifloxacin, reference compound] as the compound, how does the MIC90 ([1]; Mycobacterium tuberculosis) read?
Its MIC90 is 0.1 µM (≈ 0.0401 µg/mL).

And the MIC90 ([2]; Mycobacterium tuberculosis)?
Its MIC90 is 0.12 µM (≈ 0.0482 µg/mL).

And the MIC90 ([3]; Mycobacterium tuberculosis)?
Its MIC90 is 0.24 µM (≈ 0.0963 µg/mL).

And the MIC90 ([4]; Mycobacterium tuberculosis)?
The MIC90 was 0.15 µM (≈ 0.0602 µg/mL).

With Cc1ccn2c(C(=O)NCc3cccc(OC(C)C)c3)c(C)nc2c1 [ND-9872] as the compound, how does the MIC90 [1, 17] read?
The MIC90 was 0.23 µM (≈ 0.0776 µg/mL).

And the MIC90 [2, 18]?
Its MIC90 is 0.28 µM (≈ 0.0945 µg/mL).

What about the MIC90 [3, 19] of the same compound?
Its MIC90 is 0.89 µM (≈ 0.3 µg/mL).

And the MIC90 [4]?
The MIC90 was 0.87 µM (≈ 0.294 µg/mL).

Cc1ccn2c(C(=O)NCc3ncc(C(F)(F)F)cc3Cl)c(C)nc2c1 [ND-9902] was tested. Which MIC90 [1, 17] did it give?
Its MIC90 is 0.74 µM (≈ 0.283 µg/mL).

And the MIC90 [2, 18]?
Its MIC90 is 1.10 µM (≈ 0.421 µg/mL).

What about the MIC90 [3, 19] of the same compound?
Its MIC90 is 2.96 µM (≈ 1.13 µg/mL).

What about the MIC90 [4] of the same compound?
Its MIC90 is 2.95 µM (≈ 1.13 µg/mL).

How did the MIC90 [1, 17] turn out when Cc1ccn2c(C(=O)NCc3ccc(Oc4ccc(F)cc4)cc3)c(C)nc2c1 [ND-9758] was run?
Its MIC90 is under 0.002 µM.

What about the MIC90 [2, 18] of the same compound?
The MIC90 was 0.003 µM (≈ 0.00117 µg/mL).

And the MIC90 [3, 19]?
Its MIC90 is 0.01 µM (≈ 0.00389 µg/mL).

What about the MIC90 [4] of the same compound?
The MIC90 was 0.01 µM (≈ 0.00389 µg/mL).
